US12312419B2, “Hemiasterlin derivative having cysteine residue” (priority 2019, dated 2025)

Test system: Karpas-299 cells
Experiment: Cellular toxicity test (1), CellTiter-Glo cell viability
Assay type: cell-based, human
Conditions: for IC50: Homo sapiens, 96 h, Karpas-299, cultured 4 days, cell viability
Protocol: Karpas-299 cells (European Collection of Authenticated Cell Cultures, hereinafter, ECACC), which are human lymphoma cell lines, were cultured in RPMI 1640 (GIBCO) containing 10% fetal bovine serum (MP Biomedicals) (hereinafter, referred to as the “culture medium”). Cells were prepared to be 2×10^5 cells/mL in the culture medium, and were added to a 96 well microplate for cell culturing in an amount of 50 μL for each well. Compounds of Examples or the Comparative Example compound 4 times diluted with the culture medium in 8 stages were added to the microplate in an amount of 50 μL for each well. These were cultured at 37° C. under 5% CO2 for 4 days. After culturing, the microplate was taken out from the incubator, and was left at rest at room temperature for 10 minutes. To each well, 50 μL of CellTiter-Glo Luminescent Cell Viability Assay (Promega) was added, and the resultant mixture was stirred. This mixture was incubated at a dark place for 20 minutes. Using a microplate luminometer, luminescence at each well was measured, thereby calculating the cell viability. From the value of the cell viability, the IC50 value was calculated.
The IC50 value was calculated by the following formula: IC50(nM)=antilog(LOG10(a/b)×(e−d)/(c−d)+LOG10b) • a: concentration a of test substance • b: concentration b of test substance • c: cell viability upon adding test substance with concentration a • d: cell viability upon adding test substance with concentration b • e: intermediate value between maximum and minimum among cell viabilities upon adding test substances with different concentrations (a and b are concentrations crossing the cell viability e, and a>b is indicated).
The cell viability at each concentration was calculated by the following formula: Cell Viability (%)=a′/b′×100 • a′: mean value of luminescence amount of wells to which test substance was added (n=6) • b′: mean value of luminescence amount of wells to which test substance was not added (n=6) • (n represents the number of evaluations performed per test substance concentration).

Row | SMILES | cellular toxicity to Karpas-299 cells (in words, summary of Table 17) | IC50 [µM]
1 | CN[C@H](C(=O)N[C@H](C(=O)N(C)[C@H](/C=C(\C)C(=O)NCCCCNC(=O)CCCCCN1C(=O)CC(SC[C@H](N)C(=O)O)C1=O)C(C)C)C(C)(C)C)C(C)(C)c1cn(C)c2ccccc12 (stereo partly drawn) [Comparative Example compound, reference compound] | strong cellular toxicity | 
2 | CN[C@H](C(=O)N[C@H](C(=O)N(C)[C@H](/C=C(\C)C(=O)N[C@H](CCC(=O)N[C@@H](CCCCNC(=O)CCCCCN1C(=O)CC(SC[C@H](N)C(=O)O)C1=O)C(=O)O)C(=O)O)C(C)C)C(C)(C)C)C(C)(C)c1cn(C)c2ccccc12 (stereo partly drawn) [Example MM2] |  | 0.459
3 | CN[C@H](C(=O)N[C@H](C(=O)N(C)[C@H](/C=C(\C)C(=O)N[C@H](CCC(=O)N[C@H](CCC(=O)NCCN1C(=O)CC(SC[C@H](N)C(=O)O)C1=O)C(=O)O)C(=O)O)C(C)C)C(C)(C)C)C(C)(C)c1cn(C)c2ccccc12 (stereo partly drawn) [Example MM3] |  | 0.387
4 | CN[C@H](C(=O)N[C@H](C(=O)N(C)[C@H](/C=C(\C)C(=O)N[C@H](CCC(=O)NCCN1C(=O)CC(SC[C@H](N)C(=O)O)C1=O)C(=O)O)C(C)C)C(C)(C)C)C(C)(C)c1cn(C)c2ccccc12 (stereo partly drawn) [Example MM4] |  | 0.289
5 | CN[C@H](C(=O)N[C@H](C(=O)N(C)[C@H](/C=C(\C)C(=O)NCCCC[C@@H](NC(=O)CCCN1C(=O)CC(SC[C@H](N)C(=O)O)C1=O)C(=O)O)C(C)C)C(C)(C)C)C(C)(C)c1cn(C)c2ccccc12 (stereo partly drawn) [Example MM5] |  | > 1
6 | CN[C@H](C(=O)N[C@H](C(=O)N(C)[C@H](/C=C(\C)C(=O)N[C@H](CCC(=O)N[C@H](CCC(=O)NCCN1C(=O)CC(SC[C@H](N)C(=O)O)C1=O)C(=O)O)C(=O)O)C(C)C)C(C)(C)C)C(C)(C)c1ccccc1 (stereo partly drawn) [Example MM6] |  | > 1
7 | CN[C@H](C(=O)N[C@H](C(=O)N(C)[C@H](/C=C(\C)C(=O)N[C@H](CCC(=O)N[C@H](CCC(=O)N[C@H](CCC(=O)NCCN1C(=O)CC(SC[C@H](N)C(=O)O)C1=O)C(=O)O)C(=O)O)C(=O)O)C(C)C)C(C)(C)C)C(C)(C)c1ccccc1 (stereo partly drawn) [Example MM7] |  | > 1
8 | CN[C@H](C(=O)N[C@H](C(=O)N(C)[C@H](/C=C(\C)C(=O)N[C@H](CC(=O)NCCN1C(=O)CC(SC[C@H](N)C(=O)O)C1=O)C(=O)O)C(C)C)C(C)(C)C)C(C)(C)c1ccccc1 (stereo partly drawn) [Example MM9] |  | > 1
9 | CN[C@H](C(=O)N[C@H](C(=O)N(C)[C@H](/C=C(\C)C(=O)N[C@@H](CC(=O)NCCN1C(=O)CC(SC[C@H](N)C(=O)O)C1=O)C(=O)O)C(C)C)C(C)(C)C)C(C)(C)c1ccccc1 (stereo partly drawn) [Example MM10] |  | > 1
10 | CN[C@H](C(=O)N[C@H](C(=O)N(C)[C@H](/C=C(\C)C(=O)N[C@H](CC(=O)O)C(=O)NCCN1C(=O)CC(SC[C@H](N)C(=O)O)C1=O)C(C)C)C(C)(C)C)C(C)(C)c1ccccc1 (stereo partly drawn) [Example MM13] |  | > 1
11 | CN[C@H](C(=O)N[C@H](C(=O)N(C)[C@H](/C=C(\C)C(=O)N[C@@H](CC(=O)O)C(=O)NCCN1C(=O)CC(SC[C@H](N)C(=O)O)C1=O)C(C)C)C(C)(C)C)C(C)(C)c1ccccc1 (stereo partly drawn) [Example MM14] |  | > 1
12 | CN[C@H](C(=O)N[C@H](C(=O)N(C)[C@H](/C=C(\C)C(=O)N[C@H](CCC(=O)NCCCN1C(=O)CC(SC[C@H](N)C(=O)O)C1=O)C(=O)O)C(C)C)C(C)(C)C)C(C)(C)c1ccccc1 (stereo partly drawn) [Example MM16] |  | 0.867
13 | CN[C@H](C(=O)N[C@H](C(=O)N(C)[C@H](/C=C(\C)C(=O)N[C@@H](CC(=O)NCCN1C(=O)CC(SC[C@H](N)C(=O)O)C1=O)C(=O)O)C(C)C)C(C)(C)C)C(C)(C)c1cn(C)c2ccccc12 (stereo partly drawn) [Example MM19] |  | 0.303
14 | CN[C@H](C(=O)N[C@H](C(=O)N(C)[C@H](/C=C(\C)C(=O)N[C@H](CC(=O)NCCN1C(=O)CC(SC[C@H](N)C(=O)O)C1=O)C(=O)O)C(C)C)C(C)(C)C)C(C)(C)c1cn(C)c2ccccc12 (stereo partly drawn) [Example MM20] |  | 0.337
15 | CN[C@H](C(=O)N[C@H](C(=O)N(C)[C@H](/C=C(\C)C(=O)N[C@@H](CC(=O)O)C(=O)NCCN1C(=O)CC(SC[C@H](N)C(=O)O)C1=O)C(C)C)C(C)(C)C)C(C)(C)c1cn(C)c2ccccc12 (stereo partly drawn) [Example MM21] |  | 0.471
16 | CN[C@H](C(=O)N[C@H](C(=O)N(C)[C@H](/C=C(\C)C(=O)N[C@@H](CCC(=O)O)C(=O)NCCN1C(=O)CC(SC[C@H](N)C(=O)O)C1=O)C(C)C)C(C)(C)C)C(C)(C)c1cn(C)c2ccccc12 (stereo partly drawn) [Example MM22] |  | 0.74
17 | CN[C@H](C(=O)N[C@H](C(=O)N(C)[C@H](/C=C(\C)C(=O)N[C@H](CC(=O)O)C(=O)NCCN1C(=O)CC(SC[C@H](N)C(=O)O)C1=O)C(C)C)C(C)(C)C)C(C)(C)c1cn(C)c2ccccc12 (stereo partly drawn) [Example MM24] |  | 0.521
18 | CN[C@H](C(=O)N[C@H](C(=O)N(C)[C@H](/C=C(\C)C(=O)N[C@H](CCC(=O)O)C(=O)NCCN1C(=O)CC(SC[C@H](N)C(=O)O)C1=O)C(C)C)C(C)(C)C)C(C)(C)c1cn(C)c2ccccc12 (stereo partly drawn) [Example MM25] |  | 0.555
19 | CN[C@H](C(=O)N[C@H](C(=O)N(C)[C@H](/C=C(\C)C(=O)N[C@H](CCC(=O)N[C@@H](CCCCNC(=O)CCN1C(=O)CC(SC[C@H](N)C(=O)O)C1=O)C(=O)O)C(=O)O)C(C)C)C(C)(C)C)C(C)(C)c1cn(C)c2ccc(F)cc12 (stereo partly drawn) [Example MM26] |  | 0.384
20 | CN[C@H](C(=O)N[C@H](C(=O)N(C)[C@H](/C=C(\C)C(=O)N[C@@H](CCCCNC(=O)CCCN1C(=O)CC(SC[C@H](N)C(=O)O)C1=O)C(=O)O)C(C)C)C(C)(C)C)C(C)(C)c1cn(C)c2ccccc12 (stereo partly drawn) [Example MM27] |  | > 1
21 | C/C(=C\[C@H](C(C)C)N(C)C(=O)[C@@H](NC(=O)[C@H]1CCCCN1C(=O)CCN1C(=O)CC(SC[C@H](N)C(=O)O)C1=O)C(C)(C)C)C(=O)N[C@H](CCC(=O)O)C(=O)O (stereo partly drawn) [Example MM29] |  | > 1
22 | CN[C@H](C(=O)N[C@H](C(=O)N(C)[C@H](/C=C(\C)C(=O)N[C@H](CCC(=O)NCCN1C(=O)CC(SC[C@H](N)C(=O)O)C1=O)C(=O)O)C(C)C)C(C)(C)C)C(C)(C)c1cccc(F)c1 (stereo partly drawn) [Example MM31] |  | > 1
23 | CNC(C(=O)N[C@H](C(=O)N(C)[C@H](/C=C(\C)C(=O)N[C@H](CCC(=O)NCCN1C(=O)CC(SC[C@H](N)C(=O)O)C1=O)C(=O)O)C(C)C)C(C)(C)C)C(C)(C)c1ccc(O)cc1 (stereo partly drawn) [Example MM33] |  | 0.036
24 | CN[C@H](C(=O)N[C@H](C(=O)N(C)[C@H](/C=C(\C)C(=O)N[C@H](CCC(=O)NCCN1C(=O)CC(SC[C@H](N)C(=O)O)C1=O)C(=O)O)C(C)C)C(C)(C)C)C(C)(C)c1ccc(C(=O)O)cc1 (stereo partly drawn) [Example MM35] |  | > 1
25 | CN[C@H](C(=O)N[C@H](C(=O)N(C)[C@H](/C=C(\C)C(=O)N[C@H](CCC(=O)NCCN1C(=O)CC(SC[C@H](N)C(=O)O)C1=O)C(=O)O)C(C)C)C(C)(C)C)C(C)(C)c1cccc(OC)c1 (stereo partly drawn) [Example MM36] |  | > 1
26 | CN[C@H](C(=O)N[C@H](C(=O)N(C)[C@H](/C=C(\C)C(=O)N[C@H](CCC(=O)NCCN1C(=O)CC(SC[C@H](N)C(=O)O)C1=O)C(=O)O)C(C)C)C(C)(C)C)C(C)(C)c1cc(C)cc(C)c1 (stereo partly drawn) [Example MM37] |  | > 1
27 | CN[C@H](C(=O)N[C@H](C(=O)N(C)[C@H](/C=C(\C)C(=O)N[C@H](CCC(=O)NCCN1C(=O)CC(SC[C@H](N)C(=O)O)C1=O)C(=O)O)C(C)C)C(C)(C)C)C(C)(C)c1ccc2ccccc2c1 (stereo partly drawn) [Example MM38] |  | 0.726
